Series [1] concerns Eco.2491 (CMY-2, clinical). The experiment in a line: Standard BLI potentiation MIC assay. In kind it is cell-based, Eschericia coli. The note with it: read-out: MIC of β-lactam with BLI. The method, then: (§1) The experimental protocol was performed according to Clinical and Laboratory Standards Institute (CLSI) guidelines with modifications as described below (CLSI guidelines can be derived from the CLSI document M07-A9 published in January 2012: “Methods for Dilution Antimicrobial Susceptibility Tests for Bacteria That Grow Aerobically; Approved Standard-Ninth Edition”).
(§2) To prepare for MIC testing, frozen glycerol stocks of clinical isolates (Klebsiella pneumoniae, Eschericia coli, Enterobacter spp, Citrobacter spp, or Pseudomonas aeruginosa) were used to streak for isolated colonies on rich, non-selective, tryptic soy agar containing 5% sheep's blood (TSAB). Frozen glycerol stocks of laboratory engineered, isogenic E. coli strains, which contain cloned β-lactamase expressing plasmids were used to streak for isolated colonies on rich, selective LB agar supplemented with 25 μg/mL tetracycline to maintain the plasmid. All strains were incubated at 37° C. for 18-24 hrs.
On the day of testing, primary cultures were started by scraping off 5-10 colonies from the TSAB plates containing clinical strains or the tetracycline supplemented LB plates containing engineered strains. The clinical strain material was suspended in ˜5 mL of cation adjusted Mueller Hinton Broth (CAMHB) in 14 mL culture tubes. The engineered strain material was suspended in CAMHB (supplemented with 25 μg/mL tetracycline) in 14 mL culture tubes. All strains were incubated at 37° C. with aeration (200 rpm) for ˜2 hrs until the optical density at 600 nm (OD600) was ≧0.1.
The two compound components of the assay were each diluted in CAMHB and added to the 96-well broth microdilution assay plates. 50 μL of the β-lactam was added to each well of the assay plate in 2-fold dilutions with final concentrations ranging from 128 to 0.13 μg/mL. 25 μL of the BLI compound was added to all wells in the broth microdilution plates at a final concentration of 4 μg/mL. Inoculum cultures were prepared by standardizing the primary cultures to OD600=0.1 and then adding 20 μL of the adjusted primary culture per 1 mL CAMHB for clinical strains or CAMHB (supplemented with tetracycline at 100 μg/mL) for engineered strains, so that the final inoculum density was ˜10^5 colony forming units per milliliter. Diluted inoculum cultures were used to inoculate 25 μL per well in 96-well broth microdilution assay plates. The final volume of each well was 100 μL and contained a β-lactam at different concentrations, a BLlcompound at 4 μg/mL concentration, the bacterial culture at an OD600 of approximately 0.001 and when necessary tetracycline at 25 μg/mL.
Plates were incubated for 18-20 hours at 37° C. with aeration (200 rpm). Following incubation, growth was confirmed visually placing plates over a viewing apparatus (stand with a mirror underneath) and then OD600 was measured using a SpectraMax 340PC384 plate reader (Molecular Devices, Sunnyvale, Calif.). Growth was defined as turbidity that could be detected with the naked eye or achieving minimum OD600 of 0.1. MIC values were defined as the lowest concentration producing no visible turbidity.

The test system of series [2] is Eco isogenic, β-Lactamase none. The experiment in a line: Synergy MIC (sMIC) assay. The note with it: β-Lactam none. Format: cell-based, E. coli. The method, then:
The synergy MIC (sMIC) assay determines the concentration of the BLI required to potentiate the activity of a fixed concentration of a β-lactam antibiotic against β-lactamase producing bacterial strains. The experimental protocol was performed according to Clinical and Laboratory Standards Institute (CLSI) guidelines with modifications as described below (CLSI guidelines can be derived from the CLSI document M07-A9 published in January 2012: “Methods for Dilution Antimicrobial Susceptibility Tests for Bacteria That Grow Aerobically; Approved Standard-Ninth Edition”). […]
Plates were incubated for 18-20 hours at 37° C. with aeration (200 rpm). Following incubation, growth was confirmed visually placing plates over a viewing apparatus (stand with a mirror underneath) and then OD600 was measured using a SpectraMax 340PC384 plate reader (Molecular Devices, Sunnyvale, Calif.). Growth was defined as turbidity that could be detected with the naked eye or achieving minimum OD600 of 0.1. sMIC values were defined as the lowest concentration producing no visible turbidity. […]

The nature of series [3]: Gravimetric vapour sorption (GVS/DVS), hygroscopicity. In kind it is physicochemical. The settings on record: DVS, 25° C., 0-90% RH; sulfate. The method, then:
Sorption isotherms were obtained using a SMS DVS Intrinsic moisture sorption analyser, controlled by DVS Intrinsic Control software v1.0.1.2 (or v 1.0.1.3). The sample temperature was maintained at 25° C. by the instrument controls. The humidity was controlled by mixing streams of dry and wet nitrogen, with a total flow rate of 200 ml/min The relative humidity was measured by a calibrated Rotronic probe (dynamic range of 1.0-100% RH), located near the sample. The weight change, (mass relaxation) of the sample as a function of % RH was constantly monitored by the microbalance (accuracy ±0.005 mg).
Typically 5-20 mg of sample was placed in a tared mesh stainless steel basket under ambient conditions. The sample was loaded and unloaded at 40% RH and 25° C. (typical room conditions). A moisture sorption isotherm was performed as outlined below (2 scans giving 1 complete cycle). The standard isotherm was performed at 25° C. at 10% RH intervals over a 0-90% RH range Data analysis was undertaken in Microsoft Excel using DVS Analysis Suite v6.2 (or 6.1 or 6.0).
The sample was recovered after completion of the isotherm and re-analysed by XRPD.

The test system of series [4] is Panel of Isogenic and Clinical Strains Expressing β-Lactamases. The experiment in a line: Standard BLI potentiation MIC assay, whole panel. In kind it is cell-based. The method, then: as §1
as §2, with “hrs. […]” for “hrs.”
Plates were incubated for 18-20 hours at 37° C. with aeration (200 rpm). Following incubation, growth was confirmed visually placing plates over a viewing apparatus (stand with a mirror underneath) and then OD600 was measured using a SpectraMax 340PC384 plate reader (Molecular Devices, Sunnyvale, Calif.). Growth was defined as turbidity that could be detected with the naked eye or achieving minimum OD600 of 0.1. […]

“Also recorded” adds a separate entry of the source.

In the case of `O=C1N2C[C@@H](CC[C@H]2c2nnco2)N1OS(=O)(=O)[O-].[Na+]` [Hydrate 1, sodium (2S,5R)-2-(1,3,4-oxadiazol-2-yl)-7-oxo-1,6-diazabicyclo[3.2.1]octan-6-yl sulfate], the MIC (usually the least concentration at which growth counts as inhibited) in series [1] fell in the range of 0.25 to 0.5 µg/mL. The sMIC entry in series [2] is reported as “F (F = ≧128 μg/mL)”. Moreover, the “hygroscopicity relative to the amorphous form” value in series [3] is on record as “significantly less hygroscopic than the amorphous form; also recorded: low hygroscopicity relative to amorphous”. For the same compound, in series [4], the MIC50 – broadly, an inhibitory concentration at the 50% level, which refers to growth in some studies and to a panel of isolates in others – lay in the range of 1 to 2 µg/mL; the MIC90 – broadly, an inhibitory concentration at the 90% level, which refers to growth in some studies and to a panel of isolates in others – is 1 to 2 µg/mL.

The values are drawn from patent publication US9120795B2, “Crystalline form of a β-lactamase inhibitor” (Cubist Pharmaceuticals, Inc., priority 2013, dated 2015).
